US11702404B2, “GLP-1R modulating compounds” (priority 2019, dated 2023)
Where two headings read alike, the source gives them in different places.

Legend:
[1] = Microsomal stability, human liver microsomes (predicted hepatic clearance); details: predicted from in vitro microsomal stability data
GLP-1R = GLP-1R (Homo sapiens, UniProt P43220); test: GLP-1R activation: cAMP increase in CHO cells stably expressing GLP-1R; assay type: cell-based
[2] = cAMP increase, CHO cells stably expressing GLP-1R, 10 point dose response, 30 minutes incubation, read-out: EC50

Chain of GLP-1R (P43220 24-463): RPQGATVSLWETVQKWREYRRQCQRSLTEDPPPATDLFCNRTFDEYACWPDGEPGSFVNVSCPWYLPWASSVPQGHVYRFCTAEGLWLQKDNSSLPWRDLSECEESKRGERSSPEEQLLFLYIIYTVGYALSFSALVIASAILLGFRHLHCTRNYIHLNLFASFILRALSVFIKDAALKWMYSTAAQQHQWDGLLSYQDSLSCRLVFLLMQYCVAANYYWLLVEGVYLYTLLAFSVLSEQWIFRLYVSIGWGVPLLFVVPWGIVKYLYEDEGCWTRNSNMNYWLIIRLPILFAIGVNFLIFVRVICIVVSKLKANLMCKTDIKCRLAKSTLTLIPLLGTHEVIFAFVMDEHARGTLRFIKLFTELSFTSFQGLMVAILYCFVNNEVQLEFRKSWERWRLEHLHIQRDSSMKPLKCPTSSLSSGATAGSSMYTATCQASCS

Structure (SMILES): N#CCC1(Cn2c(Cc3cc(F)c(-c4ccnc(OCc5ccc(C#N)cc5F)n4)cc3F)nc3ccc(C(=O)O)cc32)CC1 [Example 441, 2-(4-(2-((4-cyano-2-fluorobenzyl)oxy)pyrimidin-4-yl)-2,5-difluorobenzyl)-1-((1-(cyanomethyl)cyclopropyl)methyl)-1H-benzo[d]imidazole-6-carboxylic acid]
- Predicted Hepatic Clearance (Pred. Cl.) [1]: 3 mL/min/kg
- EC50 (GLP-1R; [2]): 0.21 nM

Structure (SMILES): COCCn1c(Cc2ccc(-c3cccc(OCc4ccc(C#N)cc4F)n3)cc2NS(C)(=O)=O)nc2ccc(C(=O)O)cc21 [Example 66, 2-(4-(6-((4-Cyano-2-fluorobenzyl)oxy)pyridin-2-yl)-2-(methylsulfonamido)benzyl)-1-(2-methoxyethyl)-1H-benzo[d]imidazole-6-carboxylic acid]
- Predicted Hepatic Clearance (Pred. Cl.) [1]: 12.3 mL/min/kg
- EC50 (GLP-1R; [2]): 1030 nM

Structure (SMILES): COCCn1c(Cc2cc(F)c(-c3ccc(F)c(OCc4ccc(C#N)cc4F)n3)cc2C)nc2ccc(C(=O)O)cc21 [Example 673]
- Predicted Hepatic Clearance (Pred. Cl.) [1]: 4.5 mL/min/kg
- EC50 (GLP-1R; [2]): 3.54 nM

Structure (SMILES): COCCn1c(Cc2ccc(-c3cccc(OCc4cc(C(F)(F)F)ccc4OC)n3)cc2F)nc2ccc(C(=O)O)cc21 [Example 470, 2-(2-fluoro-4-(6-((2-methoxy-5-(trifluoromethyl)benzyl)oxy)pyridin-2-yl)benzyl)-1-(2-methoxyethyl)-1H-benzo[d]imidazole-6-carboxylic acid]
- Predicted Hepatic Clearance (Pred. Cl.) [1]: <1.83 mL/min/kg
- EC50 (GLP-1R; [2]): 1250 nM

Structure (SMILES): COCCn1c(Cc2cc(F)c(-c3cccc(OCc4ccc(C(F)F)cc4)n3)cc2F)nc2ccc(C(=O)O)cc21 [Example 809]
- Predicted Hepatic Clearance (Pred. Cl.) [1]: 2.83 mL/min/kg
- EC50 (GLP-1R; [2]): 1.05 nM

Structure (SMILES): O=C(O)c1ccc2nc(Cc3c(F)cc(-c4cccc(OCc5ccc(C(F)F)cc5F)n4)cc3F)n(C[C@@H]3CCO3)c2c1 [Example 679]
- Predicted Hepatic Clearance (Pred. Cl.) [1]: 5 mL/min/kg
- EC50 (GLP-1R; [2]): 0.06 nM

Structure (SMILES): N#Cc1ccc(COc2ncc(F)c(-c3cc(F)c(Cc4nc5c(F)cc(C(=O)O)cc5n4C[C@@H]4CCO4)cc3F)n2)c(F)c1 [Example 886]
- Predicted Hepatic Clearance (Pred. Cl.) [1]: 5.83 mL/min/kg
- EC50 (GLP-1R; [2]): 0.18 nM

Structure (SMILES): N#Cc1ccc(COc2cccc(-c3cc(F)c(Cc4nc5ccc(C(=O)O)cc5n4Cc4ncco4)cc3F)n2)c(F)c1 [Example 605, 2-(4-(6-((4-cyano-2-fluorobenzyl)oxy)pyridin-2-yl)-2,5-difluorobenzyl)-1-(oxazol-2-ylmethyl)-1H-benzo[d]imidazole-6-carboxylic acid]
- Predicted Hepatic Clearance (Pred. Cl.) [1]: 5 mL/min/kg
- EC50 (GLP-1R; [2]): 1.57 nM

Structure (SMILES): COCCn1c(Cc2c(F)cc(-c3cccc(OCc4ccc(C#N)cc4F)n3)cc2C#N)nc2ccc(C(=O)O)cc21 [Example 537, 2-(2-cyano-4-(6-((4-cyano-2-fluorobenzyl)oxy)pyridin-2-yl)-6-fluorobenzyl)-1-(2-methoxyethyl)-1H-benzo[d]imidazole-6-carboxylic acid]
- Predicted Hepatic Clearance (Pred. Cl.) [1]: 3.3 mL/min/kg
- EC50 (GLP-1R; EC50 (nM)): 6.89 nM

Structure (SMILES): COCCn1c(Cc2cc(F)c(-c3cccc(OCc4ccc(C#N)cc4F)n3)cc2F)nc2cc(Cl)c(C(=O)O)cc21 [Example 837]
- Predicted Hepatic Clearance (Pred. Cl.) [1]: 1.83 mL/min/kg
- EC50 (GLP-1R; [2]): 29.3 nM

Structure (SMILES): COCCn1c(Cc2ccc(-c3ccc(C)c(OCc4ccc(C#N)cc4F)n3)cc2)nc2ccc(C(=O)O)cc21 (single isomer, unassigned) [Example 24, 2-(4-(6-((4-cyano-2-fluorobenzyl)oxy)-5-methylpyridin-2-yl)benzyl)-1-(2-methoxyethyl)-1H-benzo[d]imidazole-6-carboxylic acid]
- Predicted Hepatic Clearance (Pred. Cl.) [1]: 2.17 mL/min/kg
- EC50 (GLP-1R; [2]): 1720 nM

Structure (SMILES): COCCn1c(Cc2cc(F)c(-c3cccc(OCc4ccc(C#N)cc4)n3)cc2F)nc2c(F)cc(C(=O)O)cc21 [Example 799]
- Predicted Hepatic Clearance (Pred. Cl.) [1]: 2.67 mL/min/kg
- EC50 (GLP-1R; [2]): 135 nM

Structure (SMILES): CC(=O)N1CCC[C@H]1Cn1c(Cc2ccc(-c3cccc(OCc4ccc(C#N)cc4F)n3)cc2F)nc2ccc(C(=O)O)cc21 [Example 453, (S)-1-((1-acetylpyrrolidin-2-yl)methyl)-2-(4-(6-((4-cyano-2-fluorobenzyl)oxy)pyridin-2-yl)-2-fluorobenzyl)-1H-benzo[d]imidazole-6-carboxylic acid]
- Predicted Hepatic Clearance (Pred. Cl.) [1]: 3.83 mL/min/kg
- EC50 (GLP-1R; read-out: EC50): 40.3 nM

Structure (SMILES): COC1(Cn2c(Cc3cc(F)c(-c4cccc(OCc5ccc(C#N)cc5F)n4)cc3F)nc3ccc(C(=O)O)cc32)CC1 [Example 746]
- Predicted Hepatic Clearance (Pred. Cl.) [1]: 5 mL/min/kg
- EC50 (GLP-1R; [2]): 0.87 nM

Structure (SMILES): N#CCC1(Cn2c(Cc3ccc(-c4ccc(F)c(OCc5ccc(C#N)cc5F)n4)cc3F)nc3c(F)cc(C(N)=O)cc32)CC1 [Example 597, 2-(4-(6-((4-cyano-2-fluorobenzyl)oxy)-5-fluoropyridin-2-yl)-2-fluorobenzyl)-1-((1-(cyanomethyl)cyclopropyl)methyl)-4-fluoro-1H-benzo[d]imidazole-6-carboxamide]
- Predicted Hepatic Clearance (Pred. Cl.) [1]: 9.83 mL/min/kg
- EC50 (GLP-1R; [2]): 13.8 nM

Structure (SMILES): COCCn1c(Cc2ccc(-c3cccc(OCc4ccc(C#CC(C)(C)O)cc4F)n3)cc2F)nc2ccc(C(=O)O)cc21 [Example 841]
- Predicted Hepatic Clearance (Pred. Cl.) [1]: 6.17 mL/min/kg
- EC50 (GLP-1R; [2]): 164 nM

Structure (SMILES): COCCn1c(Cc2cc(F)c(-c3cccc(OCc4ccc(Cl)cc4)n3)cc2F)nc2ccc(C(=O)O)cc21 [Example 602, 2-(4-(6-((4-chlorobenzyl)oxy)pyridin-2-yl)-2,5-difluorobenzyl)-1-(2-methoxyethyl)-1H-benzo[d]imidazole-6-carboxylic acid]
- Predicted Hepatic Clearance (Pred. Cl.) [1]: 2.83 mL/min/kg
- EC50 (GLP-1R; [2]): 1.17 nM

Structure (SMILES): COCCn1c(Cc2ncc(-c3cccc(OCc4ccc(C#N)cc4F)n3)cc2Cl)nc2ccc(C(=O)O)cc21 [Example 518, 2-((5′-chloro-6-((4-cyano-2-fluorobenzyl)oxy)-[2,3′-bipyridin]-6′-yl)methyl)-1-(2-methoxyethyl)-1H-benzo[d]imidazole-6-carboxylic acid]
- Predicted Hepatic Clearance (Pred. Cl.) [1]: 5.33 mL/min/kg
- EC50 (GLP-1R; [2]): 43.1 nM

Structure (SMILES): O=C(O)c1cc(F)c2nc(Cc3ccc(-c4cccc(OCc5ccc(C(F)F)cc5F)n4)cc3F)n(CC34CC(CO3)C4)c2c1 [Example 646]
- Predicted Hepatic Clearance (Pred. Cl.) [1]: 5.83 mL/min/kg
- EC50 (GLP-1R; [2]): 1.78 nM

Structure (SMILES): N#CCC1(Cn2c(Cc3ccc(-c4ccc(F)c(OCc5ccc(C#N)cc5F)n4)cc3F)nc3c(F)cc(C(=O)O)cc32)CC1 [Example 165, 2-(4-(6-((4-cyano-2-fluorobenzyl)oxy)-5-fluoropyridin-2-yl)-2-fluorobenzyl)-1-((1-(cyanomethyl)cyclopropyl)methyl)-4-fluoro-1H-benzo[d]imidazole-6-carboxylic acid]
- Predicted Hepatic Clearance (Pred. Cl.) [1]: 4 mL/min/kg
- EC50 (GLP-1R; [2]): 0.01 nM

Structure (SMILES): COCCn1c(Cc2ccc(-c3cccc(OCc4ccc(C#N)cc4F)n3)cc2F)nc2ncc(C(=O)O)cc21 [Example 71, 2-(4-(6-((4-cyano-2-fluorobenzyl)oxy)pyridin-2-yl)-2-fluorobenzyl)-1-(2-methoxyethyl)-1H-imidazo[4,5-b]pyridine-6-carboxylic]
- Predicted Hepatic Clearance (Pred. Cl.) [1]: <1.83 mL/min/kg
- EC50 (GLP-1R; [2]): 1.34 nM

Structure (SMILES): CN1CCO[C@@H](Cn2c(Cc3cc(F)c(-c4cccc(OCc5ccc(C#N)cc5F)n4)cc3F)nc3ccc(C(=O)O)cc32)C1 [Example 651]
- Predicted Hepatic Clearance (Pred. Cl.) [1]: 3.33 mL/min/kg
- EC50 (GLP-1R; [2]): 2790 nM

Structure (SMILES): COCCn1c(Cc2cc(F)c(-c3ccc(F)c(OCc4ccc(C(F)F)cc4F)n3)cc2F)nc2ccc(C(=O)O)cc21 [Example 752]
- Predicted Hepatic Clearance (Pred. Cl.) [1]: 1.83 mL/min/kg
- EC50 (GLP-1R; [2]): 0.51 nM

Structure (SMILES): N#Cc1ccc(COc2ncccc2-c2cc(F)c(Cc3nc4ccc(C(=O)O)cc4n3CC3(CF)CC3)c(F)c2)c(F)c1 [Example 199, 2-(4-(2-((4-cyano-2-fluorobenzyl)oxy)pyridin-3-yl)-2,6-difluorobenzyl)-1-((1-(fluoromethyl)cyclopropyl)methyl)-1H-benzo[d]imidazole-carboxylic acid]
- Predicted Hepatic Clearance (Pred. Cl.) [1]: <1.83 mL/min/kg
- EC50 (GLP-1R; [2]): 20.8 nM

Structure (SMILES): N#Cc1ccc(COc2cccc(-c3cc(F)c(Cc4nc5ccc(C(=O)O)cc5n4CC4(F)CCOCC4)cc3F)n2)c(F)c1 [Example 713]
- Predicted Hepatic Clearance (Pred. Cl.) [1]: 2.5 mL/min/kg
- EC50 (GLP-1R; [2]): 5.76 nM

Structure (SMILES): COCCn1c(Cn2cc(F)c(-c3cccc(OCc4ccc(C#N)cc4F)n3)cc2=O)nc2c(F)cc(C(=O)O)cc21 [Example 684]
- Predicted Hepatic Clearance (Pred. Cl.) [1]: 3 mL/min/kg
- EC50 (GLP-1R; [2]): 0.29 nM

Structure (SMILES): N#Cc1ccc(COc2cccc(-c3cc(=O)n(Cc4nc5ccc(C(=O)O)cc5n4C[C@@H]4CCO4)cc3F)n2)c(F)c1 [Example 540, (S)-2-((6-((4-cyano-2-fluorobenzyl)oxy)-5′-fluoro-2′-oxo-[2,4′-bipyridin]-1′(2′H)-yl)methyl)-1-(oxetan-2-ylmethyl)-1H-benzo[d]imidazole-6-carboxylic acid]
- Predicted Hepatic Clearance (Pred. Cl.) [1]: 3.33 mL/min/kg
- EC50 (GLP-1R; [2]): 0.12 nM

Structure (SMILES): COc1cc(Cl)ccc1COc1cccc(-c2ccc(Cc3nc4ccc(C(=O)O)cc4n3CC3(CC#N)CC3)cc2F)n1 [Example 74, 2-(4-(6-((4-chloro-2-methoxybenzyl)oxy)pyridin-2-yl)-3-fluorobenzyl)-1-((1-(cyanomethyl)cyclopropyl)methyl)-1H-benzo[d]imidazole-6-carboxylic acid]
- Predicted Hepatic Clearance (Pred. Cl.) [1]: 13.2 mL/min/kg
- EC50 (GLP-1R; [2]): 0.46 nM

Structure (SMILES): COCCn1c(Cc2ccc(-c3cccc(OCn4ccc(C#N)cc4=O)n3)cc2F)nc2ccc(C(=O)O)cc21 [Example 513, 2-(4-(6-((4-cyano-2-oxopyridin-1(2H)-yl)methoxy)pyridin-2-yl)-2-fluorobenzyl)-1-(2-methoxyethyl)-1H-benzo[d]imidazole-6-carboxylic acid]
- Predicted Hepatic Clearance (Pred. Cl.) [1]: 5.17 mL/min/kg
- EC50 (GLP-1R; [2]): 55.1 nM

Structure (SMILES): N#Cc1ccc(COc2cccc(-c3cc(F)c(Cc4nc5ccc(C(=O)O)nc5n4CC4(CF)CC4)c(F)c3)n2)c(F)c1 [Example 319, 2-(4-(6-((4-cyano-2-fluorobenzyl)oxy)pyridin-2-yl)-2,6-difluorobenzyl)-3-((1-(fluoromethyl)cyclopropyl)methyl)-3H-imidazo[4,5-b]pyridine-5-carboxylic acid]
- Predicted Hepatic Clearance (Pred. Cl.) [1]: <1.83 mL/min/kg
- EC50 (GLP-1R; [2]): 2.43 nM
